# Non-standard residues stand in square brackets, D forms with d. Residues, ends and D or L forms follow the SMILES beside them. Sar = CNCC(=O)O
# Biological target: T1, furin (Homo sapiens, UniProt P09958)
# T1 construct: made in house; host or cells: Drosophila S2 cells (Invitrogen expression system)
# Assay: biochemical
# Details: furin, Pyr-RTKR-AMC substrate; alanine scanning mutagenesis of the H5 furin cleavage sequence (Table 2); read-out: Ki
# T1 sequence (P09958 108-794 limits assumed): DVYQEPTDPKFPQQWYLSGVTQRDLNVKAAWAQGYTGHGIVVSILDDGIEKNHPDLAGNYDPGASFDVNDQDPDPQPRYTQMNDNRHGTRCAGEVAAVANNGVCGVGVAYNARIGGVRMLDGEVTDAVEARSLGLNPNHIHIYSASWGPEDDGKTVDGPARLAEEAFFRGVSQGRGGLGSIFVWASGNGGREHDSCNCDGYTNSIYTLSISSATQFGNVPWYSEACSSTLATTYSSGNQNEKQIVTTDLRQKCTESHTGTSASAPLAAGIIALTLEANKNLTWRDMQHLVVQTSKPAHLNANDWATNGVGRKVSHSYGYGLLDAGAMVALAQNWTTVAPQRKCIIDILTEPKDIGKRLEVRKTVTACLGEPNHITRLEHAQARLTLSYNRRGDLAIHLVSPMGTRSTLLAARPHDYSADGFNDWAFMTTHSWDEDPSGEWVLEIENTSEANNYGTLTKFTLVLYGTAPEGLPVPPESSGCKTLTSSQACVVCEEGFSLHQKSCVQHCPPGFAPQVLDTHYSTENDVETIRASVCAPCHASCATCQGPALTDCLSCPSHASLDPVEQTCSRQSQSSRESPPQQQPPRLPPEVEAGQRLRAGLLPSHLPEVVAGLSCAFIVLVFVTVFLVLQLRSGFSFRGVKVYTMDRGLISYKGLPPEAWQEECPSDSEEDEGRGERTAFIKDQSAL
row,SMILES,Ki
1,C[C@H](NC(=O)[C@H](C)NC(=O)[C@H](CCCNC(=N)N)NC(=O)[C@H](CCC(=O)O)NC(=O)[C@H](CCCNC(=N)N)NC(=O)[C@@H]1CCCN1C(=O)[C@@H](N)[C@@H](C)O)C(=O)N[C@@H](CCCCN)C(=O)N[C@@H](CCCCN)C(=O)N[C@@H](CCCNC(=N)N)C(=O)NCC(N)=O (H-TPRERAAKKRG-NH2),> 100 nM
2,CC(C)[C@H](NC(=O)[C@H](CCCNC(=N)N)NC(=O)[C@H](CCCCN)NC(=O)[C@H](CCCCN)NC(=O)[C@H](C)NC(=O)[C@H](C)NC(=O)[C@H](CCCNC(=N)N)NC(=O)[C@H](CCC(=O)O)NC(=O)[C@H](CCCNC(=N)N)NC(=O)[C@@H]1CCCN1C(=O)[C@@H](N)[C@@H](C)O)C(N)=O (H-TPRERAAKKRV-NH2),> 100 nM
3,C[C@H](NC(=O)[C@H](C)NC(=O)[C@H](CCCNC(=N)N)NC(=O)[C@H](CCC(=O)O)NC(=O)[C@H](CCCNC(=N)N)NC(=O)[C@@H]1CCCN1C(=O)[C@@H](N)[C@@H](C)O)C(=O)N[C@@H](CCCCN)C(=O)N[C@@H](CCCCN)C(=O)N[C@@H](CCCNC(=N)N)C(=O)N(C)CC(N)=O (H-TPRERAAKKR[Sar]-NH2),> 100 nM
4,C[C@H](NC(=O)[C@H](CCCNC(=N)N)NC(=O)[C@H](CCC(=O)O)NC(=O)[C@H](CCCNC(=N)N)NC(=O)[C@@H]1CCCN1C(=O)[C@@H](N)[C@@H](C)O)C(=O)N[C@@H](CCCNC(=N)N)C(=O)N[C@@H](CCCCN)C(=O)N[C@@H](CCCCN)C(=O)N[C@@H](CCCNC(=N)N)C(N)=O (H-TPRERARKKR-NH2),> 100 nM
5,CC(C)[C@H](NC(=O)[C@H](CCCNC(=N)N)NC(=O)[C@H](CCCCN)NC(=O)[C@H](CCCCN)NC(=O)[C@H](CCCNC(=N)N)NC(=O)[C@H](C)NC(=O)[C@H](CCCNC(=N)N)NC(=O)[C@H](CCC(=O)O)NC(=O)[C@H](CCCNC(=N)N)NC(=O)[C@@H]1CCCN1C(=O)[C@@H](N)[C@@H](C)O)C(N)=O (H-TPRERARKKRV-NH2),> 100 nM
6,C[C@H](NC(=O)[C@H](CCCNC(=N)N)NC(=O)[C@H](CCC(=O)O)NC(=O)[C@H](CCCNC(=N)N)NC(=O)[C@@H]1CCCN1C(=O)[C@@H](N)[C@@H](C)O)C(=O)N[C@@H](CCCNC(=N)N)C(=O)N[C@@H](CCCCN)C(=O)N[C@@H](CCCCN)C(=O)N[C@@H](CCCNC(=N)N)C(=O)N(C)CC(N)=O (H-TPRERARKKR[Sar]-NH2),> 100 nM
7,C[C@H](NC(=O)[C@H](C)NC(=O)[C@H](CCCNC(=N)N)NC(=O)[C@H](CCCNC(=N)N)NC(=O)[C@H](CCC(=O)O)NC(=O)[C@H](CCCNC(=N)N)NC(=O)[C@@H]1CCCN1C(=O)[C@@H](N)[C@@H](C)O)C(=O)N[C@@H](CCCCN)C(=O)N[C@@H](CCCNC(=N)N)C(N)=O (H-TPRERRAAKR-NH2),> 100 nM
8,C[C@H](NC(=O)[C@H](C)NC(=O)[C@H](CCCNC(=N)N)NC(=O)[C@H](CCCNC(=N)N)NC(=O)[C@H](CCC(=O)O)NC(=O)[C@H](CCCNC(=N)N)NC(=O)[C@@H]1CCCN1C(=O)[C@@H](N)[C@@H](C)O)C(=O)N[C@@H](CCCCN)C(=O)N[C@@H](CCCNC(=N)N)C(=O)NCC(N)=O (H-TPRERRAAKRG-NH2),> 100 nM
9,CC(C)[C@H](NC(=O)[C@H](CCCNC(=N)N)NC(=O)[C@H](CCCCN)NC(=O)[C@H](C)NC(=O)[C@H](C)NC(=O)[C@H](CCCNC(=N)N)NC(=O)[C@H](CCCNC(=N)N)NC(=O)[C@H](CCC(=O)O)NC(=O)[C@H](CCCNC(=N)N)NC(=O)[C@@H]1CCCN1C(=O)[C@@H](N)[C@@H](C)O)C(N)=O (H-TPRERRAAKRV-NH2),> 100 nM
10,C[C@H](NC(=O)[C@H](C)NC(=O)[C@H](CCCNC(=N)N)NC(=O)[C@H](CCCNC(=N)N)NC(=O)[C@H](CCC(=O)O)NC(=O)[C@H](CCCNC(=N)N)NC(=O)[C@@H]1CCCN1C(=O)[C@@H](N)[C@@H](C)O)C(=O)N[C@@H](CCCCN)C(=O)N[C@@H](CCCNC(=N)N)C(=O)N(C)CC(N)=O (H-TPRERRAAKR[Sar]-NH2),> 100 nM
11,C[C@H](NC(=O)[C@H](CCCNC(=N)N)NC(=O)[C@H](CCCNC(=N)N)NC(=O)[C@H](CCC(=O)O)NC(=O)[C@H](CCCNC(=N)N)NC(=O)[C@@H]1CCCN1C(=O)[C@@H](N)[C@@H](C)O)C(=O)N[C@@H](CCCCN)C(=O)N[C@@H](CCCCN)C(=O)N[C@@H](CCCNC(=N)N)C(N)=O (H-TPRERRAKKR-NH2),> 100 nM
12,CC(C)[C@H](NC(=O)[C@H](CCCNC(=N)N)NC(=O)[C@H](CCCCN)NC(=O)[C@H](CCCCN)NC(=O)[C@H](C)NC(=O)[C@H](CCCNC(=N)N)NC(=O)[C@H](CCCNC(=N)N)NC(=O)[C@H](CCC(=O)O)NC(=O)[C@H](CCCNC(=N)N)NC(=O)[C@@H]1CCCN1C(=O)[C@@H](N)[C@@H](C)O)C(N)=O (H-TPRERRAKKRV-NH2),> 100 nM
13,C[C@H](NC(=O)[C@H](CCCNC(=N)N)NC(=O)[C@H](CCCNC(=N)N)NC(=O)[C@H](CCC(=O)O)NC(=O)[C@H](CCCNC(=N)N)NC(=O)[C@@H]1CCCN1C(=O)[C@@H](N)[C@@H](C)O)C(=O)N[C@@H](CCCCN)C(=O)N[C@@H](CCCCN)C(=O)N[C@@H](CCCNC(=N)N)C(=O)N(C)CC(N)=O (H-TPRERRAKKR[Sar]-NH2),> 100 nM
14,CC(C)[C@H](NC(=O)[C@H](CCCNC(=N)N)NC(=O)[C@H](C)NC(=O)[C@H](C)NC(=O)[C@H](CCCNC(=N)N)NC(=O)[C@H](CCCNC(=N)N)NC(=O)[C@H](CCCNC(=N)N)NC(=O)[C@H](CCC(=O)O)NC(=O)[C@H](CCCNC(=N)N)NC(=O)[C@@H]1CCCN1C(=O)[C@@H](N)[C@@H](C)O)C(N)=O (H-TPRERRRAARV-NH2),> 100 nM
15,C[C@H](NC(=O)[C@H](CCCNC(=N)N)NC(=O)[C@H](CCCNC(=N)N)NC(=O)[C@H](CCCNC(=N)N)NC(=O)[C@H](CCC(=O)O)NC(=O)[C@H](CCCNC(=N)N)NC(=O)[C@@H]1CCCN1C(=O)[C@@H](N)[C@@H](C)O)C(=O)N[C@@H](CCCCN)C(=O)N[C@@H](CCCNC(=N)N)C(N)=O (H-TPRERRRAKR-NH2),> 100 nM
16,CC(C)[C@H](NC(=O)[C@H](CCCNC(=N)N)NC(=O)[C@H](CCCCN)NC(=O)[C@H](C)NC(=O)[C@H](CCCNC(=N)N)NC(=O)[C@H](CCCNC(=N)N)NC(=O)[C@H](CCCNC(=N)N)NC(=O)[C@H](CCC(=O)O)NC(=O)[C@H](CCCNC(=N)N)NC(=O)[C@@H]1CCCN1C(=O)[C@@H](N)[C@@H](C)O)C(N)=O (H-TPRERRRAKRV-NH2),> 100 nM
17,C[C@H](NC(=O)[C@H](CCCNC(=N)N)NC(=O)[C@H](CCCNC(=N)N)NC(=O)[C@H](CCCNC(=N)N)NC(=O)[C@H](CCC(=O)O)NC(=O)[C@H](CCCNC(=N)N)NC(=O)[C@@H]1CCCN1C(=O)[C@@H](N)[C@@H](C)O)C(=O)N[C@@H](CCCCN)C(=O)N[C@@H](CCCNC(=N)N)C(=O)N(C)CC(N)=O (H-TPRERRRAKR[Sar]-NH2),> 100 nM
18,C[C@H](NC(=O)[C@H](C)NC(=O)[C@H](CCCCN)NC(=O)[C@H](CCCNC(=N)N)NC(=O)[C@H](CCCNC(=N)N)NC(=O)[C@H](CCCNC(=N)N)NC(=O)[C@H](CCC(=O)O)NC(=O)[C@H](CCCNC(=N)N)NC(=O)[C@@H]1CCCN1C(=O)[C@@H](N)[C@@H](C)O)C(N)=O (H-TPRERRRKAA-NH2),> 100 nM
19,C[C@H](NC(=O)[C@H](C)NC(=O)[C@H](CCCCN)NC(=O)[C@H](CCCNC(=N)N)NC(=O)[C@H](CCCNC(=N)N)NC(=O)[C@H](CCCNC(=N)N)NC(=O)[C@H](CCC(=O)O)NC(=O)[C@H](CCCNC(=N)N)NC(=O)[C@@H]1CCCN1C(=O)[C@@H](N)[C@@H](C)O)C(=O)NCC(N)=O (H-TPRERRRKAAG-NH2),> 100 nM

# — patent US8053553B2, “Targeting host proteinases as a therapeutic strategy against viral and bacterial pathogens” (Socpra Sciences Sante Et Humaines, priority 2007, dated 2011)
